This note sets out measurements from article PMC2915651 (2010).

Experiment [1] relates to [d(TGGGGT)]4 (DNA, G4) TGGGGT. Nature of the experiment: ITC. Conditions: 70 mM KCl; 20 mM phosphate, 0.1 mM EDTA, pH 7.0, 25 °C; identical sites, n = 2.0.
Experiment [2] has as its system d(CGCGAATTCGCG)2 (DNA, duplex) CGCGAATTCGCG
As to the kind of experiment: 1H NMR titration. Conditions: 70 mM KCl; 10 mM phosphate, EDTA, pH 7.0, 25 °C; 1 mM DNA; shifts at most 0.03 ppm at 2:1.

Experiment [3] relates to [d(TGGGGT)]4 (DNA, G4) TGGGGT. Nature of the experiment: 1H NMR titration. To be noted: 70 mM KCl; 10 mM phosphate, EDTA, pH 7.0, 25 °C; 2 mM quadruplex; fast exchange.
The subject of experiment [4] is d(CGCGAATTCGCG)2 (DNA, duplex) CGCGAATTCGCG
Nature of the experiment: ITC. Conditions: 70 mM KCl; 20 mM phosphate, 0.1 mM EDTA, pH 7.0, 25 °C; no resolvable isotherm; ligand 600–700 μM into 30 μM DNA.

SMILES strings stand for the structures.

`Cn1cc(NC(=O)c2cc(NC(=O)CN=C(N)N)cn2C)cc1C(=O)NCCC(=N)N`: the K b in experiment [1] was 1.2 ± 0.1 × 10^6 M^-1.

In the case of `Cn1cc(NC(=O)c2cc(NC(=O)c3cc(N=CN)cn3C)cn2C)cc1C(=O)NCCC(=N)N`, the binding result in experiment [2] is “weak”; in experiment [3] it was “yes”; in experiment [4] it was “weak”. Moreover, in experiment [1], the K b is reported as 1.9 ± 0.2 × 10^6 M^-1.
